The test addresses T1, iPLA2β (Cricetulus griseus, UniProt A0A3L7I2I8).
T1 construct: (His)6; made in house; host or cells: Sf9 insect cells (baculovirus)
T1 sequence (A0A3L7I2I8 1-752 isoform A0A3L7I2I8-2): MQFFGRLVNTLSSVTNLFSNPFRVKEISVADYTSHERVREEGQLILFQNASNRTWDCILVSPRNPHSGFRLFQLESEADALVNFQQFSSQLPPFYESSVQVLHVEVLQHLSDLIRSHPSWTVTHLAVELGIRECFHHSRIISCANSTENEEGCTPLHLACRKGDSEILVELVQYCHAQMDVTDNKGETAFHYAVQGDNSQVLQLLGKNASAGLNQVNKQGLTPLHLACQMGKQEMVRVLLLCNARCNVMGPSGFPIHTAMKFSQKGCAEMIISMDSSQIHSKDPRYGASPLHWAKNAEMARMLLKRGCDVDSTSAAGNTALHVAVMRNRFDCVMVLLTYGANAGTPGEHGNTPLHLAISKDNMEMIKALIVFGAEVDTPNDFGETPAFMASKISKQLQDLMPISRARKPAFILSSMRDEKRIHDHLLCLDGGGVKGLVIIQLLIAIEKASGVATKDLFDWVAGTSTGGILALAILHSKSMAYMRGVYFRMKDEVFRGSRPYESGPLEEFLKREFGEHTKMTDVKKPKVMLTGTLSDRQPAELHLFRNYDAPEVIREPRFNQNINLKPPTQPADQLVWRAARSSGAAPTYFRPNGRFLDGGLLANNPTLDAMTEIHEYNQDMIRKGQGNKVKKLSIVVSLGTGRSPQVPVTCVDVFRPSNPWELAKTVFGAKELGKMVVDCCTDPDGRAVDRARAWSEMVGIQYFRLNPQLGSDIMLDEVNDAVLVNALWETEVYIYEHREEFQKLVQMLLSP
The test is described as follows: iPLA2β phospholipase A2 activity with radiolabeled POPC substrate. The class given is biochemical. The settings on record: oleoyl-CoA 10 μM, [14C]-POPC substrate, FIG. 11I. The protocol:
FIG. 9—Calcium-independent iPLA2β was pre-incubated in the presence of Ca^2+ (1 mM) or Ca^2+-CaM (3 μg) on ice before addition to 95 μM POPC containing either 5 mol % [1-^14C]-POPC or [1-^14C]-palmitoyl-CoA in 100 mM Tris-HCl, pH 7.2. After incubation at 37° C. for 3 min, reactions were terminated by vortexing in the presence of butanol and released radiolabeled fatty acids were resolved by TLC and quantitated by liquid scintillation spectrometry as described in Experimental Procedures.
FIGS. 11A-11D—Purified iPLA2β+/−Ca^2+/CaM was incubated with POPC/BODIPY-PC (95:5 mol %) host vesicles for 2 min at 37° C. with the indicated concentrations of guest oleoyl-CoA. Relative fluorescence was recorded utilizing 495 nm excitation and 515 nm emission wavelengths as described in Experimental Procedures. […] Radiolabeled fatty acid was extracted into butanol, resolved by TLC, and quantified by scintillation spectrometry as described in Experimental Procedures.
Phospholipase A2 and Acyl-CoA Hydrolase Enzymatic Assays—Purified recombinant iPLA2β(His)6 (peptide disclosed as SEQ ID NO: 4) (0.1-1 μg) was incubated with radiolabeled phospholipid or acyl-CoA in 25 mM Tris-HCl, pH 7.2 containing 1 mM EGTA (200 μl final volume) for 1-2 mm at 37° C. […] Incorporation of acyl-CoA into the POPC/DOPS vesicles employed was determined as described previously (64). […]

Here are results for one compound from patent publication US8148097B2, “Screening method for identification of compounds with calcium-independent phospholipase A2β (iPLA2β) modulating activity” (Washington University, priority 2005, dated 2012).

In the case of `CCCCCCCC/C=C\CCCCCCCC(=O)SCCNC(=O)CCNC(=O)[C@H](O)C(C)(C)COP(=O)(O)OP(=O)(O)OC[C@H]1O[C@@H](n2cnc3c(N)ncnc32)[C@H](O)[C@@H]1OP(=O)(O)O` [oleoyl-CoA], the “activity of CaM-inhibited iPLA2β, % of the activity observed with oleoyl-CoA alone” value is recorded as “approximately 75%”. Under “no CaM, read-out: inhibition of iPLA2β activity by oleoyl-CoA alone”, the inhibition (in general, the change of the read-out against control, counted positive when it falls) at 10 µM was found to be 20%.
